Measured values from ChEMBL document CHEMBL3621196, “Quinazolinedione SIRT6 inhibitors sensitize cancer cells to chemotherapeutics” (Eur J Med Chem, 2015).
The source made the active and inactive calls. The calls are words filed in the database; no cut-off is given here.

Experiments:
[1] = molecular target: T1, NAD-dependent protein deacylase sirtuin-6 (Homo sapiens, UniProt Q8N6T7); assay: Inhibition of human recombinant SIRT6 deacetylase activity using Arg-His-Lys-Lys(AC)-AMC as a substrate by […] assay
T1 sequence (Q8N6T7 whole entry): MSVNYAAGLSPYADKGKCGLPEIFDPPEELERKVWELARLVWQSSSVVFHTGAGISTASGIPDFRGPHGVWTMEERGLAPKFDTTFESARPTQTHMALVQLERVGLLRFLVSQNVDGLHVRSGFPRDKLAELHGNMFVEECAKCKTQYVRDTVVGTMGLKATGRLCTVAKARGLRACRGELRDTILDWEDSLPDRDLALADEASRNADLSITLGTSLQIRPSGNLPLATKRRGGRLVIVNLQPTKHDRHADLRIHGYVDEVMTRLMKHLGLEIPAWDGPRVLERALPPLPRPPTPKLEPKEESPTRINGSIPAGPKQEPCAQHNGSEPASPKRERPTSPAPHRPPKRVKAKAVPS

[2] = molecular target: T1, NAD-dependent protein deacylase sirtuin-6; assay: Inhibition of human SIRT6 deacetylase activity using Arg-His-Lys-Lys(AC)-AMC as a substrate by fluorescence assay
[3] = molecular target: T1, NAD-dependent protein deacylase sirtuin-6; assay: Inhibition of SIRT6 in human BxPC-3 cells assessed as increase in radiolabelled glucose uptake at 100 uM after 18 hrs by fluorescence plate reader relative to control; assay type: cell-based
CAPAN-1 [4] = assay: Induction of DNA damage in human BRCA2-deficient Capan1 cells assessed as increase in gammaH2AX levels at 100 uM after 24 hrs by confocal microscopy; assay type: functional, cell-based
[5] = molecular target: T1, NAD-dependent protein deacylase sirtuin-6; assay: Inhibition of human SIRT6 in […] Capan1 cells assessed as potentiation of NU1025-induced cytotoxicity by measuring cell viability at 100 uM after 7 days by CellTiter96 Aqueous1 assay; assay type: cell-based; settings: CAPAN-1
Homo sapiens [6] = species on record: Homo sapiens; assay: Selectivity ratio of IC50 for human SIRT1 to IC50 for human SIRT6
[7] = molecular target: T1, NAD-dependent protein deacylase sirtuin-6; assay: Inhibition of human SIRT6 in BRCA2-deficient Capan1 cells assessed as potentiation of olaparib-induced DNA damage by measuring gammaH2AX levels at 100 uM after 24 hrs by flow cytometry analysis; assay type: cell-based; settings: CAPAN-1
Homo sapiens [8] = species on record: Homo sapiens; assay: Selectivity ratio of IC50 for human SIRT2 to IC50 for human SIRT6
[9] = Cytotoxicity against human HEK293 cells assessed as cell viability using propidium iodide by flow cytometry; assay type: cell-based; settings: read-out: Activity
[10] = molecular target: Protein Sirt6 (Rattus norvegicus) (UniProt A6K863); assay: Inhibition of SIRT6 in rat L6 cells assessed as increase in radiolabelled glucose uptake at 100 uM after 18 hrs by fluorescence plate reader relative to control; assay type: cell-based
Sequence of Protein Sirt6 (Rattus norvegicus) (A6K863 as listed by the source): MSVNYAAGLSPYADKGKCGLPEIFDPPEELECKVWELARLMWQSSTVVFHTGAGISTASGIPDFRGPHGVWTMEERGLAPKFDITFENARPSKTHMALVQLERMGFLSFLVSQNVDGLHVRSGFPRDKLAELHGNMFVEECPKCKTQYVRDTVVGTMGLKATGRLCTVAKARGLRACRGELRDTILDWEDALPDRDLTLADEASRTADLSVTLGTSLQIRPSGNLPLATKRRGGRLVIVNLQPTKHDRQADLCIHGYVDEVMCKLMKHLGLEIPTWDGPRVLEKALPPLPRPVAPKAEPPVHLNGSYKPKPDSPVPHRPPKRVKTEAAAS

[11] = molecular target: T1, NAD-dependent protein deacylase sirtuin-6; assay: Competitive inhibition of human recombinant SIRT6 deacetylase activity using NAD+ as a substrate at 50 uM by double-reciprocal plot analysis
[12] = molecular target: T1, NAD-dependent protein deacylase sirtuin-6; assay: Inhibition of SIRT6 in human BxPC3 cells assessed as reduction in TNF alpha production by ELISA; assay type: cell-based; settings: BXPC-3, concentration not given here
[13] = molecular target: Protein Sirt6 (Rattus norvegicus) (UniProt A6K863); assay: Inhibition of SIRT6 in rat L6 cells assessed as increase in 2-NBDG uptake at 100 uM after 18 hrs by fluorescence plate reader relative to control; assay type: cell-based
[14] = molecular target: T1, NAD-dependent protein deacylase sirtuin-6; assay: Inhibition of human SIRT6 in BRCA2-deficient Capan1 cells assessed as potentiation of olaparib-induced DNA damage by measuring gammaH2AX levels at 100 uM after 24 hrs by confocal microscopy; assay type: cell-based; settings: CAPAN-1
[15] = molecular target: T1, NAD-dependent protein deacylase sirtuin-6; assay: Inhibition of human SIRT6 in BRCA2-deficient Capan1 cells assessed as potentiation of olaparib-induced DNA damage by measuring cell viability at 100 uM after 7 days by CellTiter96 Aqueous1 assay; assay type: cell-based; settings: CAPAN-1
[16] = molecular target: T1, NAD-dependent protein deacylase sirtuin-6; assay: Competitive inhibition of human recombinant SIRT6 deacetylase activity using Arg-His-Lys-Lys(AC)-AMC as a substrate at 50 uM by double-reciprocal plot analysis
[17] = molecular target: T1, NAD-dependent protein deacylase sirtuin-6; assay: Inhibition of SIRT6 in human PBMC assessed as inhibition of MLR-induced TNF alpha production at 200 uM after 3 days by ELISA
CAPAN-1 [18] = assay: Induction of DNA damage in human BRCA2-deficient Capan1 cells assessed as increase in gammaH2AX levels at 100 uM after 24 hrs by flow cytometry analysis; assay type: functional, cell-based
[19] = molecular target: T1, NAD-dependent protein deacylase sirtuin-6; assay: Inhibition of SIRT6 in human PBMC assessed as inhibition of PHA-induced TNF alpha production at 200 uM after 3 days by ELISA
[20] = molecular target: T1, NAD-dependent protein deacylase sirtuin-6; assay: Inhibition of SIRT6 in human BxPC-3 cells assessed as increase in H3K9 acetylation by immunoblotting assay relative to control; assay type: cell-based
CAPAN-1 [21] = assay: Induction of DNA damage in human BRCA2-deficient Capan1 cells assessed as increase in gammaH2AX levels at 8 uM after 24 hrs by confocal microscopy; assay type: functional, cell-based
CAPAN-1 [22] = assay: Induction of DNA damage in human BRCA2-deficient Capan1 cells assessed as increase in gammaH2AX levels at 8 uM after 24 hrs by flow cytometry analysis; assay type: functional, cell-based
[23] = Cytotoxicity against human BxPC3 cells assessed as cell viability at 30 uM after 72 hrs by CellTiter96 Aqueous1 assay; assay type: cell-based, BXPC-3; settings: for Activity: bxpc-3, 72 h, 30 µM
[24] = molecular target: T2, NAD-dependent protein deacetylase sirtuin-2 (Homo sapiens, UniProt Q8IXJ6); assay: Inhibition of human SIRT2 deacetylase activity using Arg-His-Lys-Lys(AC)-AMC as a substrate by fluorescence assay
T2 sequence (Q8IXJ6 whole entry): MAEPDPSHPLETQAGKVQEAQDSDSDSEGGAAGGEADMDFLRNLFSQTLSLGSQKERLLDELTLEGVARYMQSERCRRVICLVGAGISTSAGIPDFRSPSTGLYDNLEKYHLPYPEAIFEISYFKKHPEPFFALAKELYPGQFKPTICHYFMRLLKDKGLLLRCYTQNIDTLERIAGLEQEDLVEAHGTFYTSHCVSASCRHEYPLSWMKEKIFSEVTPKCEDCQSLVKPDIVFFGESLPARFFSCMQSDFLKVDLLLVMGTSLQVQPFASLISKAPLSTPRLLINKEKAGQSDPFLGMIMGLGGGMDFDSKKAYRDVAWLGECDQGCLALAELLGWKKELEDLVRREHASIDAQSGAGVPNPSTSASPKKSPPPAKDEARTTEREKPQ

[25] = molecular target: T3, NAD-dependent protein deacetylase sirtuin-1 (Homo sapiens, UniProt Q96EB6); assay: Inhibition of human SIRT1 deacetylase activity using Arg-His-Lys-Lys(AC)-AMC as a substrate by fluorescence assay
T3 sequence (Q96EB6 whole entry): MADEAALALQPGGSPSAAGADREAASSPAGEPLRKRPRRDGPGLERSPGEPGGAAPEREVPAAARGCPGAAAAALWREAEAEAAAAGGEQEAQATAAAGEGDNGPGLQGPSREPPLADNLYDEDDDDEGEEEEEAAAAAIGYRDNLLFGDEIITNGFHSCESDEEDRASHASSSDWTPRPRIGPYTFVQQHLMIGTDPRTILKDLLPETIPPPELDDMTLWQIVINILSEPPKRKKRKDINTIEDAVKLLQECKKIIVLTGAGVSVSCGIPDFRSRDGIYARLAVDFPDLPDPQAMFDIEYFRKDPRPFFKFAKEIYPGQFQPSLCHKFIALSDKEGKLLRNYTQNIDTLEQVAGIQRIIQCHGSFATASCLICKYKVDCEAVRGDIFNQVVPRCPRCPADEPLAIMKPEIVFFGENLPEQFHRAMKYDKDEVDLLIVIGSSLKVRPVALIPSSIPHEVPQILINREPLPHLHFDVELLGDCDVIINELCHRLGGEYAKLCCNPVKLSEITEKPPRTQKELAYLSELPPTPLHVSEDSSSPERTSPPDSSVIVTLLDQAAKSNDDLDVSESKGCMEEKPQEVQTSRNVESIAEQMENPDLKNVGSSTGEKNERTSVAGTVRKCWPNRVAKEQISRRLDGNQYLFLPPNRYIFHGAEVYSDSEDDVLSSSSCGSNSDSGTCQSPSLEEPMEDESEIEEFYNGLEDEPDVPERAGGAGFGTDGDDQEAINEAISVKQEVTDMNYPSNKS

[26] = molecular target: T1, NAD-dependent protein deacylase sirtuin-6; assay: Inhibition of SIRT6 in human PBMC assessed as inhibition of PHA-induced TNF alpha production at 100 uM after 3 days by ELISA
[27] = molecular target: T1, NAD-dependent protein deacylase sirtuin-6; assay: Inhibition of SIRT6 in human PBMC assessed as inhibition of MLR-induced TNF alpha production at 100 uM after 3 days by ELISA
[28] = molecular target: T1, NAD-dependent protein deacylase sirtuin-6; assay: Inhibition of SIRT6 in human BxPC3 cells assessed as potentiation of gemcitabine-induced cytotoxicity by measuring cell viability at 30 uM by CellTiter96 Aqueous1 assay; assay type: cell-based; settings: BXPC-3

## O=c1[nH]c(=O)c2cc(S(=O)(=O)NCc3cccc(Cn4ccnc4)c3)ccc2[nH]1
[1]
  IC50: 2870 µM

## O=C1CCc2cc(S(=O)(=O)Nc3ccc(Oc4cccnc4)cc3)ccc2N1
[2]
  IC50: 270 µM
[1]
  IC50: 275 µM

## Cn1c(=O)sc2cc(S(=O)(=O)Nc3ccc(Oc4cccnc4)cc3)ccc21
[2]
  IC50: 77 µM
[1]
  IC50: 102 µM

## O=c1[nH]c(=O)c2cc(S(=O)(=O)Nc3ccc(Oc4cccnc4)cc3)ccc2[nH]1
[3]
  fold increase in glucose uptake: 1.3 fold
CAPAN-1 [4]
  Activity: Active
[5]
  Activity: Active
Homo sapiens [6]
  Ratio IC50: 2.96
[7]
  Activity: Active
Homo sapiens [8]
  Ratio IC50: 1.07
[9]
  viability: > 50%
[10]
  fold increase in glucose uptake: 2 fold
[11]
  inhibition: Active
[12]
  inhibition: 73%
[13]
  fold increase in 2-NBDG uptake: 2.4 fold
[14]
  Activity: Active
[15]
  Activity: Active
[16]
  inhibition: Active
[17]
  inhibition: 47%
[1]
  IC50: 136 µM
CAPAN-1 [18]
  Activity: Active
[19]
  inhibition: 52%
[20]
  fold increase in H3K9 acetylation: 2.2 fold

## O=C(c1cc(Cc2n[nH]c(=O)c3ccccc23)ccc1F)N1CCN(C(=O)C2CC2)CC1
CAPAN-1 [21]
  Activity: Active
CAPAN-1 [22]
  Activity: Active

## O=c1[nH]c(=O)c2cc(S(=O)(=O)Nc3ccc(Oc4ccccc4)cc3)ccc2[nH]1
[1]
  IC50: 127 µM

## O=S(=O)(Nc1ccc(Oc2cccnc2)cc1)c1ccccc1
[1]
  IC50: 300 µM

## O=c1[nH]c(=O)c2cc(S(=O)(=O)NC3CCN(Cc4ccccc4)C3)ccc2[nH]1 (centres undefined)
[1]
  IC50: 517 µM

## Cn1c(=O)c2cc(S(=O)(=O)Nc3ccc(Cc4ccncc4)cc3)ccc2n(C)c1=O
[3]
  fold increase in glucose uptake: 1.9 fold
Homo sapiens [6]
  Ratio IC50: 133
[23]; BxPC3 cells, read-out: Activity
  viability at 72 h, 30 µM: 75%
Homo sapiens [8]
  Ratio IC50: 4.94
[24]
  IC50: 242 µM
[10]
  fold increase in glucose uptake: 4 fold
[2]
  IC50: 49 µM
[11]
  inhibition: Active
[13]
  fold increase in 2-NBDG uptake: 3.1 fold
[16]
  inhibition: Active
[1]
  IC50: 38 µM
[25]
  IC50: 6520 µM
[20]
  fold increase in H3K9 acetylation: 1.6 fold

## Cn1ccc2cc(NS(=O)(=O)c3ccc4[nH]c(=O)[nH]c(=O)c4c3)ccc21
[1]
  IC50: 82 µM

## O=c1[nH]c(=O)c2cc(S(=O)(=O)Nc3cccc(CCc4ccncc4)c3)ccc2[nH]1
[3]
  fold increase in glucose uptake: 1.2 fold
[26]
  inhibition: 44%
[27]
  inhibition: 27%
[5]
  Activity: Active
Homo sapiens [6]
  Ratio IC50: 11.5
[28]
  Activity: Active
[23]
  Activity: Non-toxic
Homo sapiens [8]
  Ratio IC50: 2.3
[9]
  viability: > 80%
[24]
  IC50: 85 µM
[10]
  fold increase in glucose uptake: 2.8 fold
[2]
  IC50: 37 µM
[11]
  inhibition: Active
[12]
  inhibition: 72%
[13]
  fold increase in 2-NBDG uptake: 1 fold
[15]
  Activity: Active
[16]
  inhibition: Active
[1]
  IC50: 55 µM
[25]
  IC50: 424 µM
[20]
  fold increase in H3K9 acetylation: 1.4 fold

## O=C1CCCN1c1ccc(S(=O)(=O)Nc2ccc(Oc3cccnc3)cc2)cc1
[2]
  IC50: 441 µM

## CC(=O)Nc1ccc(S(=O)(=O)Nc2ccc(Oc3cccnc3)cc2)cc1
[2]
  IC50: 297 µM
[1]
  IC50: 242 µM

## O=c1[nH]c(=O)c2cc(S(=O)(=O)Nc3ccccc3-c3ccccc3)ccc2[nH]1
[2]
  IC50: 137 µM
[1]
  IC50: 137 µM

## O=c1[nH]c(=O)c2cc(S(=O)(=O)Nc3ccc(Cn4ccnc4)cc3)ccc2[nH]1
[3]
  fold increase in glucose uptake: 0.6 fold
[26]
  inhibition: 31%
[27]
  inhibition: 21%
[5]
  Activity: Active
Homo sapiens [6]
  Ratio IC50: 3.97
[28]
  Activity: Active
[23]
  Activity: Non-toxic
Homo sapiens [8]
  Ratio IC50: 2.65
[9]
  viability: > 80%
[24]
  IC50: 159 µM
[10]
  fold increase in glucose uptake: 0.8 fold
[2]
  IC50: 60 µM
[12]
  inhibition: 25%
[13]
  fold increase in 2-NBDG uptake: 0.7 fold
[25]
  IC50: 238 µM
[20]
  fold increase in H3K9 acetylation: 1.5 fold
